Earlier results on one substance are cited in US20080146664A1, “Method for treating diseases caused by accumulation of body fat” (priority 2006, published 2008).

The conditions of the series: addition of conjugated linoleic acid.

With conjugated linoleic acid, the “lipodystrophy-like symptoms (fatty liver, splenic hypertrophy, disappearance of brown fat)” value was “generated”; the “pattern of adipose tissue decrease” value is reported as “partial decrease in adipose tissue”; the “significant decrease in the parametrial adipose tissue” value is on record as “not observed”; the “significant decrease in the weight of the liver” value was “not observed”.
